# Results taken from patent publication US20170247393A1, “Aminoisoxazoline Compounds as Agonists of Alpha7-Nicotinic Acetylcholine Receptors” (Forum Pharmaceuticals, Inc., priority 2015, published 2017).
# Counter-ions that a name gives are not always drawn. Like-named read-outs stand apart in the source and are kept apart here.
# Tests used:
# [1] = target: T1, human 5-HT3 serotonin receptors (Homo sapiens, UniProt P46098); test: biochemical; format: binding
# T1 sequence (P46098 24-478): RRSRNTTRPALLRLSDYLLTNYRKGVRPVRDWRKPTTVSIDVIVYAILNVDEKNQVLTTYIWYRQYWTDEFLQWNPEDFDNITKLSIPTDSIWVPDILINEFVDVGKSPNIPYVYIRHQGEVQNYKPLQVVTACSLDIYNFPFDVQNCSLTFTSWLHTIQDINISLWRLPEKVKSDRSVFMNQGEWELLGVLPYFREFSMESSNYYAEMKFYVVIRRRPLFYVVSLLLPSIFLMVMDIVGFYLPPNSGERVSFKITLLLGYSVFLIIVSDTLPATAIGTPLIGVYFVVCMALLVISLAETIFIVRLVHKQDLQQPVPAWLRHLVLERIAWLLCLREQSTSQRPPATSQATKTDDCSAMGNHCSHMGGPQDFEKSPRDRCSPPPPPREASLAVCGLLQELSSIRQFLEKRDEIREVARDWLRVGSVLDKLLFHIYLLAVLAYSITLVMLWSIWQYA
# [2] = target: recombinantly expressed human α7-nAChR (Homo sapiens, UniProt P36544); details: literature value, [125I] α-BTX radioligand, read-out: Ki (lit); cited from earlier work
# Chain of recombinantly expressed human α7-nAChR (P36544 23-502): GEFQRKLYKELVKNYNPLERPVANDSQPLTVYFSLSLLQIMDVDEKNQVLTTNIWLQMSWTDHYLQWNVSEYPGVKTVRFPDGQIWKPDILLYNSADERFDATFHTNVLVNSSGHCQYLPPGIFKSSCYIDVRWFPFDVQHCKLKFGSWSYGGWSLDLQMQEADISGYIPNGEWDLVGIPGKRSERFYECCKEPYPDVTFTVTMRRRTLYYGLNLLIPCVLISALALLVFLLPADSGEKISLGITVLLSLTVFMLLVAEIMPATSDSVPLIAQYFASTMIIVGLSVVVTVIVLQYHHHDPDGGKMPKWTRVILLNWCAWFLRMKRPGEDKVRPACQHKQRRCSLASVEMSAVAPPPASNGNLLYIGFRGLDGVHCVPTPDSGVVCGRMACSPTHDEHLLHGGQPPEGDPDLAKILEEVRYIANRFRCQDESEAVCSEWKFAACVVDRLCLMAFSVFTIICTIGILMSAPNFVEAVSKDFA
# human α7 nAChR = human α7 nAChR (Homo sapiens, UniProt P36544); details: reference compound in the above described human α7 nAChR binding assay provided by Cerep
# Chain of human α7 nAChR (P36544 23-502): as above
smiles,measurement,setting,value
"Cc1cc2cnc(NC3=NO[C@@]4(C3)CN3CCC4CC3)cc2s1 [(R)-99, (R)-N-(2-methylthieno[3,2-c]pyridin-6-yl)spiro[4H-isoxazole-5,3′-quinuclidine]-3-amine hydrochloride]",Ki,[1],> 10 µM
"Cc1cc2cnc(NC3=NO[C@@]4(C3)CN3CCC4CC3)cc2o1 [(R)-100, (R)-N-(2-methylfuro[3,2-c]pyridin-6-yl)spiro[4H-isoxazole-5,3′-quinuclidine]-3-amine hydrochloride]",Ki,[1],> 10 µM
"Clc1cccc2nc(NC3=NO[C@]4(C3)CN3CCC4CC3)sc12 [(S)-11, (S)—N-(7-chlorobenzo[d]thiazol-2-yl)-4H-1′-azaspiro[isoxazole-5,3′-bicyclo[2.2.2]octan]-3-amine]",Ki,"[1]; CHO cell membranes expressing human 5-HT3 receptors, [3H]BRL 43694, 120 min at room temperature, read-out: h-5HT3 Ki",0.13 µM
Cc1ccc(-c2ccc(OC3CN4CCC3CC4)cn2)cc1 (centres unmarked) [AQW051],Ki,[2],28 nM
same,Ki,human α7 nAChR,255 nM
